Earlier results, collected in article PMC2984425, “Safety and pharmacokinetics of novel selective vascular endothelial growth factor receptor-2 inhibitor YN968D1 in patients with advanced malignancies” (BMC Cancer, 2010).

Legend:
[1] = tested on: advanced refractory solid tumors; conditions: pooled analysis of 137 patients from 4 phase I trials; cited from earlier work
colorectal cancer = tested on: colorectal cancer; set-up: method as in PMID 17947727; conditions: 84 patients with colorectal cancer, monotherapy; cited from earlier work
[2] = tested on: metastatic gastric cancer; set-up: method as in ref 16 = [16]; Moehler M Hartmann JT Lordick F Al-Batran S Reimer P Trarbach T Ebert M Daum S Weihrauch M Galle PR AIO Upper GI Group Sunitinib in patients with chemo-refractory metastatic gastric cancer: Preliminar; conditions: of 52 patients, chemo-refractory metastatic gastric cancer; cited from earlier work
renal cell carcinoma = tested on: renal cell carcinoma; set-up: method as in PMID 17215529; conditions: first-line treatment for renal cell carcinoma; cited from earlier work

Compound | PR, % of patients [1] | evaluable patients who achieved PR [1] | patients who had SD [1] | patients with signs of disease progression by radiological imaging [1] | patients who achieved PR (colorectal cancer) | patients with stable disease (colorectal cancer) | patients who showed tumor control [2] | progression-free survival (PFS) (renal cell carcinoma) | response rate (renal cell carcinoma)
CNC(=O)c1cc(Oc2ccc(NC(=O)Nc3ccc(Cl)c(C(F)(F)F)c3)cc2)ccn1 [sorafenib] | 1.4% | 2 | 38 | 70.8% |  |  |  |  | 
CCN(CC)CCNC(=O)c1c(C)[nH]c(/C=C2\C(=O)Nc3ccc(F)cc32)c1C [sunitinib] |  |  |  |  | 1 | 13 | 5 | 11 months | 31%
